Test results reported in patent US9707284B2, “Formulations of peptides and chloroquines for the treatment of pathogenic immune responses in immune mediated diseases” (The Regents of the University of California, priority 2006, dated 2017).
Where a SMILES comes first, the peptide text is derived from it.

Legend:
T cells = settings: human, in vivo
[1] = Phase II clinical trial with dnaJP1 in RA: safety, adverse events; format: in vivo, human; settings: 25 mg per os daily, 168 days
Method: A double-blinded, placebo-controlled ITT trial was designed to test for the first time if immune tolerization to dnaJp1 observed in the trial translated into clinical amelioration of the disease. dnaJP1 was tested as a first line inducer of remission in patients with early RA.

## C[C@H](NC(=O)[C@H](C)NC(=O)[C@H](Cc1c[nH]cn1)NC(=O)CNC(=O)[C@H](Cc1ccc(O)cc1)NC(=O)[C@H](CCC(N)=O)NC(=O)[C@H](CC(=O)O)NC(=O)[C@H](Cc1ccc(O)cc1)NC(=O)[C@H](C)NC(=O)[C@H](C)NC(=O)[C@H](CCCNC(=N)N)NC(=O)[C@H](CCCCN)NC(=O)[C@@H](N)CCC(N)=O)C(=O)N[C@@H](Cc1ccccc1)C(=O)N[C@@H](CCC(=O)O)C(=O)O [dnaJP1, QKRAAYDQYGHAAFE] (H-QKRAAYDQYGHAAFE-OH)
T cells
  ability of T cells to respond to the recall antigen Tetanus Toxoid: remained intact
[1]
  safety and tolerability: safe and well tolerated
